In patent US9938273B2 (Plexxikon Inc., priority 2015, dated 2018):

Columns and labels:
[1] = biological target: T1, BA/F3-FLT3-ITD + D835Y cells (Homo sapiens, UniProt P36888, D835Y, cells depend on it, form not given); assay: Cell proliferation assay (CellTiter-Glo), engineered BA/F3 cells; assay type: cell-based, murine; conditions: BaF3 FLT3 ITD/D835Y cells, 3d-Growth; read-out: BaF3_FLT3 ITD/D835Y 3d-Growth: IC50
T1 sequence (P36888 1-993 D835Y): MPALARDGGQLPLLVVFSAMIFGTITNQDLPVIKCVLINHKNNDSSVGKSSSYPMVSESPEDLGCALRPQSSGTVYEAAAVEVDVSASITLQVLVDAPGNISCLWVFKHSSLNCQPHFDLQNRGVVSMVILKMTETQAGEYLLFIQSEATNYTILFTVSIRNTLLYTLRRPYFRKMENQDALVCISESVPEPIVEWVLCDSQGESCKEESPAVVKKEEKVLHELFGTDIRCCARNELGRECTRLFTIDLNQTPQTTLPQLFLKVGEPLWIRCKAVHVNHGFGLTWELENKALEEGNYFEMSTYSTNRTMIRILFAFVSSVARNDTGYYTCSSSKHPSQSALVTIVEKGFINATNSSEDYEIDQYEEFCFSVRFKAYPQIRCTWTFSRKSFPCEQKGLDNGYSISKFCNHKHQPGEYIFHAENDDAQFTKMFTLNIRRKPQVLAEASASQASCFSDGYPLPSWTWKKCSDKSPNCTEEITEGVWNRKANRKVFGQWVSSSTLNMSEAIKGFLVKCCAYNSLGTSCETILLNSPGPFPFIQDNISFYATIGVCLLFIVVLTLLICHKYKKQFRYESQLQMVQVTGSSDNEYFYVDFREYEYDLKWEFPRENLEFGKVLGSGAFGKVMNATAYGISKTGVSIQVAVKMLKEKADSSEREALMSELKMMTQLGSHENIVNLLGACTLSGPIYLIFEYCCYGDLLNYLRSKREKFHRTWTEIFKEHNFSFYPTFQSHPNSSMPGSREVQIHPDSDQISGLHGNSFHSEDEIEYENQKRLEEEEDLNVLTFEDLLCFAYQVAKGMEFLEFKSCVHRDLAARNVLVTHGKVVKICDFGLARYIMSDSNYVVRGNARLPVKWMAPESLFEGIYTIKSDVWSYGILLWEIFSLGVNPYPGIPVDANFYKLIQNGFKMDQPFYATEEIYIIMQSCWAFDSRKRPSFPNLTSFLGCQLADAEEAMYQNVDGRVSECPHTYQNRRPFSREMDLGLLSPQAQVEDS
Source text: The FLT3 inhibitors may be assessed using the MOLM-14, Acute Myeloid Leukemia cell line that endogenously expresses FLT3 ITD or derivatives of the human FLT3 AML cell line which acquired the D835Y (activation loop) of F691L (gatekeeper) mutation after selection in escalating doses of the FLT3 Inhibitor AC220. FLT3 inhibitors may also be assessed using cells that are engineered to express mutant FLT3. For engineered cells, murine Ba/F3 cells were transfected with full-length FLT3 ITD/D835Y mutations. The parental BA/F3 cells are dependent upon Interleukin-3 (IL-3) for survival, and introduction of the FLT3 constructs rendered these cells dependent upon FLT3 kinase activity when cultured in the absences of IL-3. Engineered BA/F3 cell growth assays can be performed in either the […] of IL-3, to assess the compound inhibition of FLT3 or to detect the presence of off-target activity, respectively. Inhibitors of FLT3 kinase activity reduce or eliminate the FLT3 oncogenic signaling, resulting in reduced cell proliferation. This inhibition is measured as a function of compound concentration to asses IC50 values.
Cell lines used in proliferation assays are as follows in Table 3:
Cells were seeded at 1×10^4 cells per well of a 96 well cell culture plate in 50 μl of cell culture medium. Compounds were dissolved in DMSO, typically at a concentration of 0.5 mM and were serially diluted 1:3 for a total of eight points and added to the cells to final concentrations of […], 0.0041, 0.0014 and 0.00046 μM in 100 μl cell culture medium (final concentration 0.2% DMSO). […] The cells were incubated at 37° C., 5% CO2 for three days. CellTiter-Glo Buffer (Promega Cell Viability Assay catalog #G7573) and substrate were equilibrated to room temperature, and enzyme/substrate Recombinant Firefly Luciferase/Beetle Luciferin was reconstituted. The cell plates were equilibrated to room temperature for 30 minutes, then lysed by addition of an equivalent volume of the Celltiter-Glo Reagent. The plate was mixed for 10 minutes on a plate shaker to lyse the cells. The plates were read on a Tecan M1000 using Luminescence protocol modified to read 0.1 s per well. The luminescence reading assesses the ATP content, which correlates directly with cell number such that the reading as a function of compound concentration was used to determine the IC50 value.

c-KIT = biological target: T2, c-KIT (Homo sapiens, UniProt P10721); assay: AlphaScreen kinase assay with recombinant enzyme, c-KIT; assay type: biochemical; conditions: 100ATP, 8pt, GMean
T2 construct: purchased Millipore 14-559K
T2 sequence (P10721 26-976): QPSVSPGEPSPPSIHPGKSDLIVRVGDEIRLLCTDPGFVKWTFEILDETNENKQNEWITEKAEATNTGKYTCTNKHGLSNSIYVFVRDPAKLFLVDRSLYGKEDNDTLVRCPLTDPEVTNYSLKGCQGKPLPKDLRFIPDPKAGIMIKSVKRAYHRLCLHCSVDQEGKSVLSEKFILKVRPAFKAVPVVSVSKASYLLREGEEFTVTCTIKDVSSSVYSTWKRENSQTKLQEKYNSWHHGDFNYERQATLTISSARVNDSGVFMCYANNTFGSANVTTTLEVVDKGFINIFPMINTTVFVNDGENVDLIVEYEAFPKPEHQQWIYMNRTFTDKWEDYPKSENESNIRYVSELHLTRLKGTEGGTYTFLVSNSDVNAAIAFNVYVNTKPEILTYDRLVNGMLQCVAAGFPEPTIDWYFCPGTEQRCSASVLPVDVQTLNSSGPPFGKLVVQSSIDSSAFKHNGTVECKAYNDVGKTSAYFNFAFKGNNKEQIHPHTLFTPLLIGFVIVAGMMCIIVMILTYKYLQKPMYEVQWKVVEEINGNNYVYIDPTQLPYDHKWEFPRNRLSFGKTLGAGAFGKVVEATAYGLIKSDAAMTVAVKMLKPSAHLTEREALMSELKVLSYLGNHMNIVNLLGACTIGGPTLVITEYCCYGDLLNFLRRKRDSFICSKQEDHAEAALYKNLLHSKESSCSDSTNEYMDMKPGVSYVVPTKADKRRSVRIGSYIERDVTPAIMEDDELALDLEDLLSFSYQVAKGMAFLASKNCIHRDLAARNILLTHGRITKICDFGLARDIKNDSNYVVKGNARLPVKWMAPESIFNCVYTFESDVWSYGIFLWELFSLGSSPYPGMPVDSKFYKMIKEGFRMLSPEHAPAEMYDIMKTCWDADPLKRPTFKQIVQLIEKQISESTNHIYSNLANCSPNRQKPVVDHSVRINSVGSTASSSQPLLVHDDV
In short: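 Read-out: AlphaScreen proximity signal at 580 nm (680 nm excitation), lost as peptide tyrosine phosphorylation falls. Substrate Biotin-GG(EEEEY)10EE at 30 nM; IC50 runs at 10 μM (FLT3 mutants) or 100 μM (c-KIT) final. Donor beads 20 min, then acceptor beads 60 min, room temperature.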

| Compound | GI50 [1] [µM] | IC50 (c-KIT) [µM] |
| --- | --- | --- |
| N#C[C@H]1CCN(C(=O)c2cccc(-c3cnc4[nH]c(-c5ccccc5)cc4c3)n2)C1 [Compound P-0117, (3S)-1-[6-(2-phenyl-1H-pyrrolo[2,3-b]pyridin-5-yl)pyridine-2-carbonyl]pyrrolidine-3-carbonitrile] | 0.0001 to 10 | 0.0001 to 10 |
| CC(C)(C#N)NC(=O)c1cccc(-c2cnc3[nH]c(-c4ccccc4)cc3c2)n1 [Compound P-0118, N-(1-cyano-1-methyl-ethyl)-6-(2-phenyl-1H-pyrrolo[2,3-b]pyridin-5-yl)pyridine-2-carboxamide] | 0.0001 to 10 | 50 to 100 |
| CN(CCC#N)C(=O)c1cccc(-c2cnc3[nH]c(-c4ccccc4)cc3c2)n1 [Compound P-0119, N-(2-cyanoethyl)-N-methyl-6-(2-phenyl-1H-pyrrolo[2,3-b]pyridin-5-yl)pyridine-2-carboxamide] | 0.0001 to 10 | 50 to 100 |
| N#CC1CCN(C(=O)c2cccc(-c3cnc4[nH]c(C5=CCCCC5)cc4c3)n2)C1 (stereo not drawn) [Compound P-0120, 1-[6-[2-(cyclohexen-1-yl)-1H-pyrrolo[2,3-b]pyridin-5-yl]pyridine-2-carbonyl]pyrrolidine-3-carbonitrile] | 0.0001 to 10 | 0.0001 to 10 |
| CC(C)(C#N)CNC(=O)c1cccc(-c2cnc3[nH]c(C4=CCCCC4)cc3c2)n1 [Compound P-0123, N-(2-cyano-2-methyl-propyl)-6-[2-(cyclohexen-1-yl)-1H-pyrrolo[2,3-b]pyridin-5-yl]pyridine-2-carboxamide] | 0.0001 to 10 | 0.0001 to 10 |

Other lines, results leading:

| GI50 [1] [µM] | IC50 (c-KIT) [µM] | Compound |
| --- | --- | --- |
| 0.0001 to 10 | 10 to 50 | O=C(c1cccc(-c2cnc3[nH]c(-c4cnn(CC(F)(F)F)c4)cc3c2)n1)N1CCC(F)(F)C1 [Compound P-0112, (3,3-difluoropyrrolidin-1-yl)-[6-[2-[1-(2,2,2-trifluoroethyl)pyrazol-4-yl]-1H-pyrrolo[2,3-b]pyridin-5-yl]-2-pyridyl]methanone] |
| 0.0001 to 10 | 0.0001 to 10 | CC(C)(C#N)CNC(=O)c1cccc(-c2cnc3[nH]c(-c4cnn(CC(F)(F)F)c4)cc3c2)n1 [Compound P-0113, N-(2-cyano-2-methyl-propyl)-6-[2-[1-(2,2,2-trifluoroethyl)pyrazol-4-yl]-1H-pyrrolo[2,3-b]pyridin-5-yl]pyridine-2-carboxamide] |
| 0.0001 to 10 | 50 to 100 | N#CC1(NC(=O)c2cccc(-c3cnc4[nH]c(-c5ccccc5)cc4c3)n2)CCC1 [Compound P-0114, N-(1-cyanocyclobutyl)-6-(2-phenyl-1H-pyrrolo[2,3-b]pyridin-5-yl)pyridine-2-carboxamide] |
| 0.0001 to 10 | 50 to 100 | N#CC1(F)CCN(C(=O)c2cccc(-c3cnc4[nH]c(-c5ccccc5)cc4c3)n2)C1 (stereo not drawn) [Compound P-0115, 3-fluoro-1-[6-(2-phenyl-1H-pyrrolo[2,3-b]pyridin-5-yl)pyridine-2-carbonyl]pyrrolidine-3-carbonitrile] |
